Test results: patent US20060281786A1, “Compounds having activity at 5ht2c receptor and uses thereof” (priority 2003, published 2006)

SMILES: COc1cc2c3c(n(C)c2cc1Br)CN(c1ccc(OC)c(OCCN2CCCCC2)c1)C3=O.Cl
- melting point: 227 to 229 °C
